Assay results reported in publication PMC9939733 (The Journal of Biological Chemistry, 2023).

Legend:
Type in all cases: biochemical
WT IDH2 = target: T1, WT IDH2 (Homo sapiens, UniProt P48735); assay: Absorbance assay, WT activity in the presence of equimolar DL-isocitrate (inhibition); conditions: […] isocitrate and […] test compound, 75 μM NADP+, 2.0 nM WT IDH2
T1 construct: made in house; host or cells: Sf21 insect cells (cell pellets prepared at Evotec)
T1 sequence (P48735 40-452): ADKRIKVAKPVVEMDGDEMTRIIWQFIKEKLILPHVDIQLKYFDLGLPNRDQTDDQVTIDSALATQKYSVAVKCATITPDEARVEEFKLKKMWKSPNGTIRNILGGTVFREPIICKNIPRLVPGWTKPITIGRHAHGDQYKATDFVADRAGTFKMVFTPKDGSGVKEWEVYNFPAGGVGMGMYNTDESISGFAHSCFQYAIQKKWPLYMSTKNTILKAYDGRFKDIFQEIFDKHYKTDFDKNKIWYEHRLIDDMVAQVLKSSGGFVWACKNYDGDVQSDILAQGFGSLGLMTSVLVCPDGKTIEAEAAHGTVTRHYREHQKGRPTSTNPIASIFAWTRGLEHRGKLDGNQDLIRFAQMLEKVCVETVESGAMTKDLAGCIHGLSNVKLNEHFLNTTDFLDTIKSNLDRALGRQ
Procedure, shortened: (§1)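 Tech. quadruplicates; cpds pipetted simultaneously, reaction initiated by dispenser addition.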

WT IDH1 = target: T2, WT IDH1 (Homo sapiens, UniProt O75874); assay: as above; conditions: […] isocitrate and […] test compound, 75 μM NADP+, 2.0 nM WT IDH1
T2 construct: made in house; host or cells: Escherichia coli BL21(DE3) pLyS
T2 sequence (O75874 whole entry): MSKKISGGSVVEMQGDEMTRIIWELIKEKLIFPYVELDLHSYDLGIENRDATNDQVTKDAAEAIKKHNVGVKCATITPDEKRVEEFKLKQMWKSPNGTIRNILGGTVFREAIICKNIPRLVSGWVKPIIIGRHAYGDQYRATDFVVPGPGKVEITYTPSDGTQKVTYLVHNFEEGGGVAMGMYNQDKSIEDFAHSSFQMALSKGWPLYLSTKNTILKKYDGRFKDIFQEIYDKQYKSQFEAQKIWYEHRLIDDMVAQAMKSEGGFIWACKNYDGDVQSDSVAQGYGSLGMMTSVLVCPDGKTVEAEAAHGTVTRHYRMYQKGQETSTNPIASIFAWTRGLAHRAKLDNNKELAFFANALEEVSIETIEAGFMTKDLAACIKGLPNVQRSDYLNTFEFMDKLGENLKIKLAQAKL
Procedure, shortened: as §1

R132H IDH1 = R132H IDH1 (Homo sapiens, UniProt O75874, R132H); assay: Absorbance assay, variant activity in the presence of equimolar 2OG (inhibition screen); set-up: made in house; host or cells: Escherichia coli BL21(DE3) pLyS; conditions: […] 2OG and […] test compound, 0.03 μM R132H IDH1, 50 μM NADPH
Chain of R132H IDH1 (O75874 whole entry R132H): as the sequence (O75874 whole entry) above, with R132H counted along it
Procedure, shortened: as §1

O=C(O)CCC(=O)C(=O)O [2OG, 2-oxoglutarate, reference compound]
activity [%] (%-substrate conversion after 20 min incubation) (WT IDH2): 91 ± 1% | activity [%] (%-substrate conversion after 20 min incubation) (WT IDH1): 93 ± 1% | activity [%] (%-substrate conversion after 20 min incubation) (R132H IDH1): 100%
